Source: patent publication US6630313B2, “Phosphatidyl serine receptors and uses thereof” (National Jewish Medical and Research Center, priority 2000, dated 2003)

What was measured:
[1] = test system: Jurkat T cells transfected with the candidate PSR; assay: Binding and phagocytosis of symmetric red cell ghosts; type: cell-based, human; conditions: for binding of symmetric red cell ghosts: FIG. 5; for binding and phagocytosis of symmetric red cell ghosts: stably transfected Jurkat T cells, FIG. 5 legend
Text: A human EST clone (Accession No. R24727) containing the full length gene was obtained through the IMAGE Consortium via ATCC (Manassas, Va.). The insert was subcloned into pcDNA 3.1/neo at Hind III/Not I sites (Invitrogen, Carlsbad, Calif.). M12.C3 cells were transfected in OptiMEM I medium using Lipofectamine Plus (both from GibcoBRL Life Science Technologies, Grand Island, N.Y.). Jurkat T cells were transfected in OptiMEM I medium using DMRIE C Jurkat T cells were stimulated with PHA alone (1 μg/ml) or with PMA (1.6 nM) and PHA to induce expression of the receptor. After 48 hrs, the cells were analyzed for expression of the PS receptor using mAb 217 and flow cytometry. For stable transfections, Jurkat T cells were selected in G418 (1 mg/ml). Surface expression of the receptor was induced by treatment of the stably transfected cells with 160 nM PMA in the absence of G418 for 48 hours. The candidate PSR was also inserted into pRc/RSV (PharMingen, San Diego, Calif.), or pUP (provided by Brian Schaefer), and transfected into Jurkat T cells or M12.C3 cells by electroporation.
Human red blood cells were lysed in 1:50 PBS containing 1 mM CaCl2 on ice for one hour; they were resealed at 37° C. for 30 minutes by addition of 5×PBS. Exposure of phosphatidylserine was confirmed by binding of annexin-FITC, assessed by flow cytometry.

[2] = test system: HMDM; assay: Uptake of apoptotic cells by HMDM; type: cell-based, human; conditions: control agents
Protocol: Human monocytes were obtained from normal donors, and cultured in X-Vivo 10 (BioWhitaker) containing 10% human serum. The differentiated macrophages (HMDM) were used at 7 days of culture. Mouse bone-marrow derived macrophages were derived by culturing bone marrow cells in M-CSF for 5-7 days.
Macrophages, fibroblasts, or epithelial cells were preincubated with 100 μM liposomes (containing 50:50 molar ratio of PS:PC or PI:PC), 1 mM RGDS or RGES, undiluted hybridoma supernatants containing mAb 217 or mAb 284 (for HMDM) or 100 μg/ml purified mAb 217, or 100 μg/ml isotype controls for 30 minutes prior to adding apoptotic Jurkat T cells at ratio of 5:1 target:phagocyte. Apoptosis was induced in Jurkat T cell by UV irradiation as described (Fadok et al., J Clin Invest 101:890-898 (1998)). THP-1 cells were stimulatedwith PMA (160 nM) for 72 hours to induce a macrophage phenotype, the ability to adhere, and the ability to take up apoptotic cells. After 1 hr, the phagocytes were washed and fixed for light microscopic evaluation of uptake. […] Aliquots were removed and assessed for binding and phagocytosis by light microscopy as described (Fadok et al., J Immunol 148:2207-2216 (1992); Fadok et al., J Immunol 149:4029-4035 (1992); Fadok et al., J Immunol 151:4274-4285 (1993); Fadok et al., J Immunol 161:6250-6257 (1998)). […]

Compound	binding of symmetric red cell ghosts [1]	binding and phagocytosis of symmetric red cell ghosts [1]	effect on uptake of apoptotic cells by HMDM [2]
N[C@H](COP(=O)(O)O)C(=O)O [phospho-D-serine]	not	not	
N[C@@H](COP(=O)(O)O)C(=O)O [phospho-L-serine]	inhibited	inhibited stereospecifically	
RGES			no effect
